Literature values as cited in patent US20060088617A1, “Chocolate composition and method for benefiting the cardiovascular system” (priority 2004, published 2006).

Tested on: blood vessel function
Details: after consumption of flavonoid-rich dark chocolate

## Oc1cc(O)c2c(c1)O[C@H](c1ccc(O)c(O)c1)[C@H](O)C2 [epicatechin]
  absorption of epicatechin in the blood: absorbed at high levels in the blood
